These results are taken from patent US11371097B2, “Articles for diagnosis of liver fibrosis” (THE GOVERNMENT OF THE UNITED STATES, as represented by THE …, priority 2015, dated 2022).

One series relates to liver gene expression. Kind of series: Liver gene expression by microarray (transcriptomic analysis). The series is classed as in vivo, rats. On the procedure:
Serum miRNA expression was measured by next-generation sequencing. Gene expression in the liver was determined by microarray, and global serum and liver protein expression was determined by semi-quantitative mass spectrometry. […] Transcriptomic analysis identified 506 differentially expressed genes in the liver. 13 miRNAs were predicted to target 100 unique differentially expressed genes in the liver. Global proteomics analysis identified 131 differentially expressed proteins in the liver and 53 in the serum. Of these, 7 miRNAs targeted 13 unique genes coding for differentially expressed liver tissue proteins and 3 miRNAs targeted 3 unique genes coding for serum proteins. These 16 differentially expressed miRNAs in the serum are predicted to target and potentially regulate gene expression contributing to the progression of toxic liver injury. (Fermenter M G et al. Serum miRNA as prognostic indicators of toxic liver injury. Submitted abstract in October 2015 for presentation at the Society of Toxicology in March 2016 (New Orleans, La.)).

The next series has as its system liver. The note with it: 5-7 days oral administration or intraperitoneal injection, various doses; cited from earlier work.
Another series concerns Psma5. The experiment in a line: qPCR of liver RNA: Psma5. The format is in vivo, Male Sprague-Dawley rats. The note with it: high-dose group with vacuolation pathology; p<0.05. The procedure: Working on dry ice, a portion (−10 mg) of flash-frozen liver was cut from each sample and transferred to a clean, labeled tube. Total RNA was then isolated using Qiagen's miRNeasy 96 kit (Qiagen, Valencia, Calif.) following manufacturer's instructions with a final elution volume of −150 μL (2×75 μL). The quality and quantity of RNA samples were evaluated with a 2100 Bioanalyzer (Agilent Technologies, Santa Clara, Calif.), using the Agilent RNA 6000 Nano Reagents and a multiwell NanoDrop 8000 spectrophotometer (Thermo Fisher Scientific, Waltham, Mass.).
Using 1 μg RNA input, cDNA was generated using a QuantiTect Reverse Transcription kit (Qiagen, Valencia, Calif.) following manufacturer's instructions. Applied Biosystems SYBR Green Master Mix was used in a 20 μL qPCR reaction with 2 μL of cDNA template and a 2.tM final concentration of each primer. A total of five genes were targeted (Gapdh, Actb, Timp1, Tgfbl, and Psma5), two of which served as the endogenous controls (Gapdh and Actb). An Applied Biosystems 7500 Real-Time PCR System (Applied Biosystems, Foster City, Calif.) was used for thermal cycling and fluorescence detection using the default settings for Quantitation-Comparative CT with SYBR® . . . Green Reagents which uses the following scheme: 95° C. for 10 minutes followed by 40 cycles of: 95° C. for 15 seconds, 60° C. for 1 minute, and a fluorescence signal read. […]
A general note: Real-time PCR tracks product formation cycle by cycle.

Series [1] can be described thus: Observation of plasma (lipemia) after dosing. The format is in vivo, Male Sprague-Dawley rats. The note with it: all doses. On the procedure: Animals were observed cageside one hour following daily dose administration, then 1-2 times per day during dosing regimens. Body weights were measured daily prior to dose administration, and prior to euthanasia. Twenty-four hours after the final dose administration, animals were anesthetized with isoflurane then euthanized by exsanguination followed by decapitation. Livers were harvested at necropsy and weighed to within 0.1 g. One half of the left lobe of the liver was fixed in 10% formalin. The remaining half of the left lobe of the liver was flash frozen in liquid nitrogen, then stored below −70° C. Liver specimens were frozen in less than three minutes from time of death.

SMILES strings stand for the structures.

`Nc1ccc(Cc2ccc(N)cc2)cc1` [4,4′-methylenedianiline] registered a Differentially expressed genes in the series on liver gene expression of 506. For the same compound, in the series with liver, the “Fibrosis score in the DrugMatrix study” value is “scored fibrosis-positive”.

Turning to `Brc1ccccc1` [bromobenzene], in the series on Psma5, the Psma5 expression is 2.2±0.8 fold vehicle control.

Regarding `C[C@@H]1C[C@H]2[C@@H]3CCC4=CC(=O)C=C[C@]4(C)[C@@]3(F)[C@@H](O)C[C@]2(C)[C@@]1(O)C(=O)CO` [dexamethasone], the “Lipemia (plasma appearance)” value in series [1] is reported as “resulted in lipemia (milky white plasma)”.
